# Patent publication US20200352918A1, “COMPOUNDS AND METHODS FOR TREATING OR PREVENTING FIBROSIS” (priority 2019, published 2020)
# Tested on: bleomycin model of lung injury
# Experiment: Bleomycin-induced pulmonary fibrosis in aged mice
# Assay type: in vivo
# Method: To define the anti-fibrotic effect of AA5, a bleomycin model of lung injury in aged mice was used as a model of lung fibrosis (FIG. 30A). 52-week-old mice were challenged with bleomycin (3 U/kg) by the oropharyngeal route to induce lung injury, followed by systemic administration of AA5 (20 mg/kg) or DMSO, from days 7-21 post bleomycin injury. Naïve mice were maintained as controls. The mice were sacrificed on day 21 and the total collagen content of the lungs was quantified using the hydroxyproline assay. […] The percentage of fibrotic areas from each section was quantified using hematoxylin and eosin staining, tiled and imaged on a Zeiss Axioscope microscope at 2.5× and quantified using the spline contour tool using the ZEN 2011 software.
# Naive mice (n=4) without bleomycin were also monitored in the same manner throughout treatment period. […] Data represent min-max and median of collagen content relative to total protein content. ***P<0.001 **P<0.01 using one-way ANOVA and Sidak's multiple comparison test. FIGS. 30C and 30D show a representative H&E section of bleomycin treated lungs with the borders of the lung and fibrotic areas marked using the spline contour tool (FIG. 30C). […] Scale bar, 200 μm. […] Scale bars, 100 μm.
structure (smiles),measurement,setting,value
Cc1c(C(=O)Nc2nc3ccccc3s2)sc2nc3cc4c(cc3cc12)OCO4 [AA5],Total collagen of the lungs (hydroxyproline assay),"AA5 20 mg/kg systemic, days 7-21 post bleomycin, day 21, vs vehicle",significantly reduced total collagen
same,Type II marker pro-Surfactant Protein C (proSPC),"AA5 20 mg/kg vs vehicle, IF",qualitatively larger number
same,Percentage of fibrotic areas (H&E),"AA5 20 mg/kg, day 21",vehicle treated mice displayed significantly more fibrotic areas compared to the AA5 treated animals
